Laboratory results published in the supplement of paper PMC10307832.

Assays:
Experiment in all cases: relative viability (nuclei count vs DMSO), 5 days (fraction); higher = more cells survive
CUDC-101 + Lapatinib = compound: C#Cc1cccc(Nc2ncnc3cc(OC)c(OCCCCCCC(=O)NO)cc23)c1 [CUDC-101] + CS(=O)(=O)CCNCc1ccc(-c2ccc3ncnc(Nc4ccc(OCc5cccc(F)c5)c(Cl)c4)c3c2)o1 [Lapatinib] (partner 2 µM)
Outline: (§1)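 Lung cancer cell lines, seeded in 1536-well plates, were treated the following day by pin tool with a single drug or with five library-drug doses (not always all listed) in √10 steps on top of a fixed anchor-drug dose. Cells were fixed and nuclei stained in one step after 5 days, and nuclei were counted. Relative viability is the nuclei count for treated wells divided by that for vehicle wells, reported as medians of duplicate plates.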

CUDC-101 + Olaparib = compound: C#Cc1cccc(Nc2ncnc3cc(OC)c(OCCCCCCC(=O)NO)cc23)c1 [CUDC-101] + O=C(c1cc(Cc2n[nH]c(=O)c3ccccc23)ccc1F)N1CCN(C(=O)C2CC2)CC1 [Olaparib] (partner 8 µM)
Outline: as §1

NVP-TAE684 + Bortezomib = compound: COc1cc(N2CCC(N3CCN(C)CC3)CC2)ccc1Nc1ncc(Cl)c(Nc2ccccc2S(=O)(=O)C(C)C)n1 [NVP-TAE684] + CC(C)C[C@H](NC(=O)[C@H](Cc1ccccc1)NC(=O)c1cnccn1)B(O)O [Bortezomib] (partner 0.002 µM)
Outline: as §1

NVP-TAE684 + Navitoclax = compound: COc1cc(N2CCC(N3CCN(C)CC3)CC2)ccc1Nc1ncc(Cl)c(Nc2ccccc2S(=O)(=O)C(C)C)n1 [NVP-TAE684] + CC1(C)CCC(c2ccc(Cl)cc2)=C(CN2CCN(c3ccc(C(=O)NS(=O)(=O)c4ccc(N[C@H](CCN5CCOCC5)CSc5ccccc5)c(S(=O)(=O)C(F)(F)F)c4)cc3)CC2)C1 [Navitoclax] (partner 0.5 µM)
Outline: as §1

NVP-TAE684 + Vorinostat = compound: COc1cc(N2CCC(N3CCN(C)CC3)CC2)ccc1Nc1ncc(Cl)c(Nc2ccccc2S(=O)(=O)C(C)C)n1 [NVP-TAE684] + O=C(CCCCCCC(=O)Nc1ccccc1)NO [Vorinostat] (partner 1 µM)
Outline: as §1

Cell Line | relative viability (CUDC-101 + Lapatinib; first compound 0.01 µM) | relative viability (CUDC-101 + Lapatinib; first compound 0.03162 µM) | relative viability (CUDC-101 + Lapatinib; first compound 0.1 µM) | relative viability (CUDC-101 + Lapatinib; first compound 0.3162 µM) | relative viability (CUDC-101 + Lapatinib; first compound 1 µM) | relative viability (CUDC-101 + Olaparib; first compound 0.01 µM) | relative viability (CUDC-101 + Olaparib; first compound 0.03162 µM) | relative viability (CUDC-101 + Olaparib; first compound 0.1 µM) | relative viability (CUDC-101 + Olaparib; first compound 0.3162 µM) | relative viability (CUDC-101 + Olaparib; first compound 1 µM) | relative viability (NVP-TAE684 + Bortezomib; first compound 0.2 µM) | relative viability (NVP-TAE684 + Bortezomib; first compound 0.6325 µM) | relative viability (NVP-TAE684 + Bortezomib; first compound 2 µM) | relative viability (NVP-TAE684 + Navitoclax; first compound 0.2 µM) | relative viability (NVP-TAE684 + Navitoclax; first compound 0.6325 µM) | relative viability (NVP-TAE684 + Navitoclax; first compound 2 µM) | relative viability (NVP-TAE684 + Vorinostat; first compound 0.2 µM) | relative viability (NVP-TAE684 + Vorinostat; first compound 0.6325 µM) | relative viability (NVP-TAE684 + Vorinostat; first compound 2 µM)
NCI-H1355 | 1.04 | 0.825 | 1.05 | 0.895 | 0.679 | 0.756 | 0.711 | 0.726 | 0.693 | 0.585 | 1.23 | 1.17 | 0.859 | 0.882 | 0.992 | 0.622 | 0.561 | 0.605 | 0.327
NCI-H1437 | 0.884 | 0.792 | 0.773 | 0.796 | 0.355 | 0.676 | 0.649 | 0.642 | 0.605 | 0.537 | 0.452 | 0.487 | 0.322 | 1.31 | 1.12 | 0.631 | 0.832 | 0.899 | 0.426
NCI-H1650 | 0.833 | 0.72 | 0.963 | 0.772 | 0.48 | 0.926 | 0.667 | 0.744 | 0.867 | 0.578 | 0.194 | 0.183 | 0.173 |  | 1.08 | 0.545 | 0.573 | 0.561 | 0.502
NCI-H1651 | 0.869 | 0.813 | 0.884 | 0.771 | 0.325 | 0.194 | 0.209 | 0.192 | 0.2 | 0.182 | 0.987 | 0.98 | 0.93 | 1.41 | 1.07 | 0.964 | 0.635 | 0.537 | 0.508
NCI-H1666 | 0.64 | 0.692 | 0.583 | 0.664 | 0.38 | 0.777 | 0.741 | 0.717 | 0.751 | 0.713 | 0.849 | 0.71 | 0.4 | 0.932 | 0.919 | 0.566 | 0.99 | 0.964 | 0.877
NCI-H1734 | 1.1 | 0.988 | 1.07 | 1.09 | 0.841 | 0.663 | 0.606 | 0.59 | 0.697 | 0.499 | 0.986 | 0.982 | 0.601 | 0.844 | 0.91 | 0.769 | 0.846 |  | 0.631
NCI-H1755 | 1.09 | 1.04 | 1.02 | 1.1 | 0.798 | 0.873 | 0.933 | 0.904 | 0.853 | 0.753 |  | 0.949 | 0.838 | 1.06 | 1.06 | 0.921 | 0.768 | 0.744 | 0.635
NCI-H1915 | 1.02 | 1.04 | 0.977 | 0.911 | 0.837 | 0.25 | 0.232 | 0.225 | 0.229 | 0.164 | 1.09 | 1.03 | 1.05 | 0.795 | 0.806 | 0.752 | 0.579 | 0.547 | 0.459
NCI-H1975 | 1.02 | 0.913 | 0.844 | 0.82 | 0.411 | 0.853 | 0.737 | 0.818 | 0.859 | 0.745 | 0.359 | 0.362 | 0.21 | 1.06 |  | 0.513 | 0.694 | 0.666 | 0.263
NCI-H1993 | 0.758 | 0.899 | 1.03 | 0.995 | 0.635 | 1.04 | 0.963 | 1.02 | 1.1 | 0.667 |  | 1.09 | 0.806 |  | 0.791 | 0.696 | 0.713 | 0.695 | 0.48
NCI-H2009 | 0.924 | 1 | 1.07 | 0.925 | 0.87 | 0.698 | 0.694 | 0.697 | 0.615 | 0.646 | 0.977 | 0.897 | 0.645 | 1.2 | 1.15 | 0.95 | 0.733 | 0.554 | 0.495
NCI-H2023 | 0.991 | 0.813 | 1.04 | 0.936 | 0.402 | 0.499 | 0.448 | 0.453 | 0.486 | 0.387 |  | 0.944 | 0.268 | 0.965 | 1.04 | 0.775 | 0.646 | 0.634 | 0.102
NCI-H2085 | 0.817 | 0.686 | 0.826 | 0.752 | 0.502 | 0.766 | 0.806 | 0.721 | 0.813 | 0.676 | 0.95 | 0.926 | 0.955 | 1.01 | 1.06 | 0.874 | 0.817 | 0.755 | 0.725
NCI-H2087 | 0.986 | 1.37 | 1.04 | 1.04 | 0.761 | 0.698 | 0.614 | 0.522 | 0.578 | 0.488 | 0.998 | 0.789 | 0.886 | 1.11 | 1.17 | 0.766 | 0.917 | 0.492 | 0.601
NCI-H2126 | 0.764 | 0.785 | 0.758 | 0.803 | 0.635 | 0.875 | 0.919 | 0.905 | 0.968 | 0.787 | 1.09 | 1.07 | 0.958 | 0.951 | 0.84 | 0.621 | 0.808 | 0.732 | 0.443
NCI-H2228 | 1.06 | 1.49 | 1.12 | 0.977 | 0.412 | 0.756 | 0.783 | 1.03 | 0.659 | 0.653 | 0.633 | 0.33 | 0.214 | 0.443 | 0.421 | 0.129 | 0.467 | 0.325 | 0.142
NCI-H2347 | 1.08 | 0.918 | 1.03 | 1.05 | 0.91 | 0.677 | 0.681 | 0.626 | 0.686 | 0.479 | 1.41 | 0.822 | 1.02 | 0.716 | 0.826 | 0.752 | 0.538 | 0.588 | 0.44
